According to patent US20120041030A1, “PYRIDINE THIO DERIVATIVE, AND PHARMACEUTICAL COMPOSITION WHICH CONTAINS SAME AND HAS ANTI-HELICOBACTER PYLORI ACTION” (priority 2009, published 2012):
In brackets after ≈: the same amount, converted by molar mass. Read-outs that look alike come from different tables or passages of the source.

How the values were obtained:
Format in all cases: cell-based
[1] = system: Proteus vulgaris (ATCC 13315); assay: Antibacterial test (MIC), comparison bacteria; conditions: for MIC: ATCC13315, Gram negative, read-out: minimum inhibitory concentration (MIC)
Method: (§1) ATCC43504 which was a standard bacterial strain was used as Helicobacter pylori (H. pylori) to perform the test in vitro in a Columbia agar medium. The bacteria were cultured at 37° C. and a pH of 7.0 for three days. The minimum inhibitory concentration (MIC, μg/ml) was found on the fourth day. Each sample was dissolved in 1% DMSO to use. […] As bacteria for comparison, Gram negative bacteria, for example, E. coli (ATCC 10536 ATCC 25922), Klebsiella pneumonia (ATCC 10031), Proteus vulgaris (ATCC 13315), Pseudomonas aeruginosa (ATCC 9027) and Salmonella typhimurium (ATCC 13311) were used and Gram positive bacteria, for example, Staphylococcus aureus, MRSA (ATCC 33591), Staphylococcus epidermidis (ATCC 12228), Streptococcus pneumonia (ATCC 6301), Mycobacterium ranae (ATCC 110) and Enterococcus faecalis (VRE, ATCC 51575) were used.
(§2) The values in each table show minimum inhibitory concentrations (MIC, μg/ml).

[2] = system: Escherichia coli (ATCC 10536); assay: Antibacterial test (MIC), comparison bacteria; conditions: for MIC: ATCC10536, Gram negative, read-out: minimum inhibitory concentration (MIC)
Method: as §1, §2

[3] = system: Salmonella typhimurium (ATCC 13311); assay: Antibacterial test (MIC), comparison bacteria; conditions: Gram negative; for MIC: Salmonella enterica, read-out: minimum inhibitory concentration (MIC)
Method: as §1, §2

[4] = system: Escherichia coli (ATCC 25922); assay: Antibacterial test (MIC), comparison bacteria; conditions: for MIC: ATCC25922, Gram negative, read-out: minimum inhibitory concentration (MIC)
Method: as §1, §2

[5] = system: Pseudomonas aeruginosa (ATCC 9027); assay: Antibacterial test (MIC), comparison bacteria; conditions: for MIC: ATCC9027, Gram negative, read-out: minimum inhibitory concentration (MIC)
Method: as §1, §2

[6] = system: Mycobacterium ranae (ATCC 110); assay: Antibacterial test (MIC), comparison bacteria; conditions: for MIC: ATCC110, Gram positive, read-out: minimum inhibitory concentration (MIC)
Method: as §1, §2

[7] = system: Klebsiella pneumonia (ATCC 10031); assay: Antibacterial test (MIC), comparison bacteria; conditions: for MIC: Klebsiella pneumoniae, ATCC10031, Gram negative, read-out: minimum inhibitory concentration (MIC)
Method: as §1, §2

[8] = system: Staphylococcus aureus (MRSA, ATCC 33591); assay: Antibacterial test (MIC), comparison bacteria; conditions: Gram positive; for MIC: read-out: minimum inhibitory concentration (MIC)
Method: as §1, §2

[9] = system: Staphylococcus epidermidis (ATCC 12228); assay: Antibacterial test (MIC), comparison bacteria; conditions: for MIC: ATCC12228, Gram positive, read-out: minimum inhibitory concentration (MIC)
Method: as §1, §2

[10] = system: Streptococcus pneumonia (ATCC 6301); assay: Antibacterial test (MIC), comparison bacteria; conditions: for MIC: Streptococcus pneumoniae, ATCC6301, Gram positive, read-out: minimum inhibitory concentration (MIC)
Method: as §1, §2

[11] = system: Enterococcus faecalis (VRE, ATCC 51575); assay: Antibacterial test (MIC), comparison bacteria; conditions: Gram positive; for MIC: read-out: minimum inhibitory concentration (MIC)
Method: as §1, §2

[12] = system: Helicobacter pylori (ATCC 43504); assay: Antibacterial test (MIC) against Helicobacter pylori; conditions: for MIC: Helicobacter pylori
Method: as §1, §2

[13] = system: Gram negative or Gram positive bacteria; assay: Antibacterial test (MIC), comparison bacteria summarised in text; conditions: text summary over the comparison bacteria
Method: ATCC43504 which was a standard bacterial strain was used as Helicobacter pylori (H. pylori) to perform the test in vitro in a Columbia agar medium. The bacteria were cultured at 37° C. and a pH of 7.0 for three days. The minimum inhibitory concentration (MIC, μg/ml) was found on the fourth day. Each sample was dissolved in 1% DMSO to use. As control drugs for the antibacterial agent, ampicillin (AMPC), clarithromycin (CAM), and gentamycin (GEM) were used. As bacteria for comparison, Gram negative bacteria, for example, E. coli (ATCC 10536 ATCC 25922), Klebsiella pneumonia (ATCC 10031), Proteus vulgaris (ATCC 13315), Pseudomonas aeruginosa (ATCC 9027) and Salmonella typhimurium (ATCC 13311) were used and Gram positive bacteria, for example, Staphylococcus aureus, MRSA (ATCC 33591), Staphylococcus epidermidis (ATCC 12228), Streptococcus pneumonia (ATCC 6301), Mycobacterium ranae (ATCC 110) and Enterococcus faecalis (VRE, ATCC 51575) were used.
as §2

[14] = ATCC43504, 72 h, pH 7, Helicobacter pylori ATCC 43504, Columbia agar medium, 37° C., pH 7.0, cultured three days, MIC found on the fourth day, read-out: minimum inhibitory concentration (MIC)

Q: With `CCOCCCOc1ccnc(SCc2nc3ccccc3[nH]2)c1C` [Example 11] as the compound, how does the MIC [1] read?
A: > 100 µg/mL

Q: What about the MIC [2] of the same compound?
A: > 100 µg/mL

Q: And the MIC [3]?
A: > 100 µg/mL

Q: What about the MIC [4] of the same compound?
A: > 100 µg/mL

Q: What about the MIC [5] of the same compound?
A: > 100 µg/mL

Q: What about the MIC [6] of the same compound?
A: > 100 µg/mL

Q: What about the MIC [7] of the same compound?
A: > 100 µg/mL

Q: What about the MIC [8] of the same compound?
A: > 100 µg/mL

Q: What about the MIC [9] of the same compound?
A: > 100 µg/mL

Q: What about the MIC [10] of the same compound?
A: > 100 µg/mL

Q: And the MIC [11]?
A: > 100 µg/mL

Q: What about the MIC [12, 14] of the same compound?
A: 0.1 µg/mL (≈ 0.28 µM)

Q: What does the source list for `COCCOCCOc1ccnc(SCc2nc3ccccc3[nH]2)c1C.Cl` [Example 12, 2-[[[4-[2-(2-methoxyethoxy)-ethoxy]-3-methyl-2-pyridyl]thio]-methyl]-1H-benzimidazole hydrochloride]?
A: MIC [1]: > 100 µg/mL; MIC [2]: > 100 µg/mL; MIC [3]: > 100 µg/mL; MIC [4]: > 100 µg/mL; MIC [5]: > 100 µg/mL; MIC [6]: > 100 µg/mL; MIC [7]: > 100 µg/mL; MIC [8]: > 100 µg/mL; MIC [9]: > 100 µg/mL; MIC [10]: > 100 µg/mL; MIC [11]: > 100 µg/mL; MIC [12, 14]: 0.3 µg/mL

Q: Which results are given for `Cc1c(OCCCCCCCCO)ccnc1SCc1nc2ccccc2[nH]1` [Example 13, 2-[[[4-(8-hydroxy-1-octyloxy)-3-methyl-2-pyridyl]thio]-methyl]-1H-benzimidazole]?
A: MIC [1]: > 100 µg/mL; MIC [2]: > 100 µg/mL; MIC [3]: > 100 µg/mL; MIC [4]: > 100 µg/mL; MIC [5]: > 100 µg/mL; MIC [6]: > 100 µg/mL; MIC [7]: > 100 µg/mL; MIC [8]: > 100 µg/mL; MIC [9]: > 100 µg/mL; MIC [10]: > 100 µg/mL; MIC [11]: > 100 µg/mL; MIC ([12]; summary of Tables 2 and 3): 0.003 µg

Q: Which “minimum inhibitory concentration (MIC)” value ([1]; Gram negative) does the source give for Gentamycin [GEM, reference compound] here?
A: 0.3 µg/mL

Q: And the “minimum inhibitory concentration (MIC)” value ([2]; Gram negative)?
A: 0.3 µg/mL

Q: And the “minimum inhibitory concentration (MIC)” value [3]?
A: 3.0 µg/mL

Q: What about the “minimum inhibitory concentration (MIC)” value ([4]; Gram negative) of the same compound?
A: 1.0 µg/mL

Q: And the “minimum inhibitory concentration (MIC)” value ([5]; Gram negative)?
A: 1.0 µg/mL

Q: What about the “minimum inhibitory concentration (MIC)” value ([6]; Gram positive) of the same compound?
A: 0.3 µg/mL

Q: What about the “minimum inhibitory concentration (MIC)” value ([7]; Gram negative) of the same compound?
A: 1.0 µg/mL

Q: And the “minimum inhibitory concentration (MIC)” value [8]?
A: 1.0 µg/mL

Q: And the “minimum inhibitory concentration (MIC)” value ([9]; Gram positive)?
A: 0.1 µg/mL

Q: What about the “minimum inhibitory concentration (MIC)” value ([10]; Gram positive) of the same compound?
A: 100 µg/mL

Q: And the “minimum inhibitory concentration (MIC)” value [11]?
A: 100 µg/mL

Q: What about the “minimum inhibitory concentration (MIC)” value ([12]; Helicobacter pylori ATCC 43504, Columbia agar medium, 37° C., pH 7.0, cultured three days, MIC found on the fourth day) of the same compound?
A: 0.3 µg/mL

Q: And the “MIC against Helicobacter pylori” value ([12]; control drug)?
A: 0.3 µg/mL

Q: What about the “MIC against Gram negative or Gram positive bacteria” value [13] of the same compound?
A: 0.1 to 1.0 µg/mL
